Experimental data taken from patent publication US20100267561A1, “HERBICIDAL PYRIDAZINONE DERIVATIVES” (priority 2007, published 2010).

Legend:
Format in all cases: in vivo
[1] = test system: pigweed (Amaranthus retroflexus); experiment: Test A pre-/postemergence plant response
Method in brief: (§1)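 Seeds were planted in blended loam soil and sand, then treated preemergence by directed soil spray. At that time, emerged plants (one- to two-leaf, 2–10 cm) received postemergence applications of the same surfactant-containing formulation. Injury was assessed visually on a 0–100 scale after approximately 10 days.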

[2] = test system: barnyardgrass (Echinochloa crus-galli); experiment: Test A pre-/postemergence plant response
Method in brief: as §1

[3] = test system: giant foxtail (Setaria faberi); experiment: Test A pre-/postemergence plant response
Method in brief: as §1

[4] = test system: wheat (Triticum aestivum); experiment: Test A pre-/postemergence plant response
Method in brief: as §1

[5] = test system: velvetleaf (Abutilon theophrasti); experiment: Test A pre-/postemergence plant response
Method in brief: as §1

[6] = test system: morningglory (Ipomoea coccinea); experiment: Test A pre-/postemergence plant response
Method in brief: as §1

[7] = test system: large crabgrass (Digitaria sanguinalis); experiment: Test A pre-/postemergence plant response
Method in brief: as §1

corn (Zea mays) = experiment: Test A pre-/postemergence plant response
Method in brief: as §1

[8] = test system: wheat (Triticum aestivum); experiment: Test B pre-/postemergence plant response; details: for Wheat plant response rating: 8 g ai/ha
Method in brief: (§2)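 Seeds were sown and sprayed preemergence, while plants at 2 to 18 cm (1- to 4-leaf stage) got postemergence sprays. Compounds were formulated in a non-phytotoxic solvent mixture with surfactant. After 13 to 15 days in a greenhouse, injury was rated visually against untreated controls, 0 (no effect) to 100 (complete control).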

[9] = test system: johnsongrass (Sorghum halepense); experiment: Test B pre-/postemergence plant response; details: for Johnsongrass plant response rating: 8 g ai/ha
Method in brief: as §2

[10] = test system: green foxtail (Setaria viridis); experiment: Test B pre-/postemergence plant response; details: for Foxtail, Green plant response rating: 8 g ai/ha
Method in brief: as §2

[11] = Postemergence, 125 g ai/ha, 0 to 100 scale, 0 no effect, 100 complete control
[12] = Postemergence, 500 g ai/ha, 0 to 100 scale, 0 no effect, 100 complete control
[13] = Preemergence, 125 g ai/ha, 0 to 100 scale (0 no effect, 100 complete control)
[14] = Preemergence, 500 g ai/ha, 0 to 100 scale (0 no effect, 100 complete control)
[15] = Postemergence, 16 g ai/ha, scale 0 to 100
[16] = Postemergence, 62 g ai/ha, scale 0 to 100, 0 no effect, 100 complete control
[17] = Preemergence, 16 g ai/ha, scale 0 to 100 (0 no effect, 100 complete control)
[18] = Preemergence, 31 g ai/ha, 0 to 100 scale, 0 no effect, 100 complete control
[19] = Preemergence, 62 g ai/ha, scale 0 to 100
[20] = Postemergence, 31 g ai/ha, scale 0 to 100, 0 no effect, 100 complete control

Q: With Cn1ncc(O)c(-c2nn(-c3ccc(Cl)cc3)cc2Cl)c1=O [Compound 28] as the molecule, how does the “Plant response rating, Pigweed” value [1, 11] read?
A: 0

Q: And the “Plant response rating, Pigweed” value [1, 12]?
A: 0

Q: What about the “Plant response rating, Pigweed” value [1, 13] of the same molecule?
A: 0

Q: And the “Plant response rating, Pigweed” value [1, 14]?
A: 0

Q: And the “Plant response rating, Barnyardgrass” value [2, 11]?
A: 60

Q: What about the “Plant response rating, Barnyardgrass” value [2, 12] of the same molecule?
A: 100

Q: And the “Plant response rating, Barnyardgrass” value [2, 13]?
A: 100

Q: What about the “Plant response rating, Barnyardgrass” value [2, 14] of the same molecule?
A: 100

Q: And the “Plant response rating, Foxtail, Giant” value [3, 11]?
A: 90

Q: And the “Plant response rating, Foxtail, Giant” value [3, 12]?
A: 90

Q: And the “Plant response rating, Foxtail, Giant” value [3, 13]?
A: 100

Q: What about the “Plant response rating, Foxtail, Giant” value [3, 14] of the same molecule?
A: 100

Q: And the “Plant response rating, Wheat” value [4, 11]?
A: 50

Q: And the “Plant response rating, Wheat” value [4, 12]?
A: 70

Q: And the “Plant response rating, Wheat” value [4, 13]?
A: 70

Q: What about the “Plant response rating, Wheat” value [4, 14] of the same molecule?
A: 100

Q: What about the “Plant response rating, Velvetleaf” value [5, 11] of the same molecule?
A: 0

Q: And the “Plant response rating, Velvetleaf” value [5, 12]?
A: 0

Q: And the “Plant response rating, Velvetleaf” value [5, 13]?
A: 0

Q: And the “Plant response rating, Velvetleaf” value [5, 14]?
A: 20

Q: What about the “Plant response rating, Morningglory” value [6, 11] of the same molecule?
A: 0

Q: What about the “Plant response rating, Morningglory” value [6, 12] of the same molecule?
A: 30

Q: What about the “Plant response rating, Morningglory” value [6, 14] of the same molecule?
A: 0

Q: What about the “Plant response rating, Crabgrass, Large” value [7, 11] of the same molecule?
A: 80

Q: And the “Plant response rating, Crabgrass, Large” value [7, 12]?
A: 90

Q: What about the “Plant response rating, Crabgrass, Large” value [7, 13] of the same molecule?
A: 90

Q: And the “Plant response rating, Crabgrass, Large” value [7, 14]?
A: 100

Q: What about the “Plant response rating, Corn” value (corn (Zea mays); [11]) of the same molecule?
A: 40

Q: What about the “Plant response rating, Corn” value (corn (Zea mays); [12]) of the same molecule?
A: 90

Q: What about the “Plant response rating, Corn” value (corn (Zea mays); [13]) of the same molecule?
A: 80

Q: What about the “Plant response rating, Corn” value (corn (Zea mays); [14]) of the same molecule?
A: 90

Q: What about the “Wheat plant response rating” value ([8]; postemergence, 0-100 scale) of the same molecule?
A: 20

Q: What about the “Plant response rating, Wheat” value [8, 15] of the same molecule?
A: 40

Q: And the “Plant response rating, Wheat” value [8, 16]?
A: 90

Q: And the “Plant response rating, Wheat” value [8, 17]?
A: 5

Q: What about the “Plant response rating, Wheat” value [8, 18] of the same molecule?
A: 15

Q: And the “Plant response rating, Wheat” value [8, 19]?
A: 90

Q: What about the “Wheat plant response rating” value ([8]; Preemergence, scale 0 to 100) of the same molecule?
A: 0

Q: What about the “Johnsongrass plant response rating” value ([9]; postemergence, 0-100 scale) of the same molecule?
A: 20

Q: What about the “Plant response rating, Johnsongrass” value [9, 15] of the same molecule?
A: 65

Q: And the “Plant response rating, Johnsongrass” value [9, 20]?
A: 75

Q: What about the “Plant response rating, Johnsongrass” value [9, 16] of the same molecule?
A: 98

Q: What about the “Plant response rating, Johnsongrass” value [9, 17] of the same molecule?
A: 85

Q: And the “Plant response rating, Johnsongrass” value [9, 18]?
A: 98

Q: What about the “Plant response rating, Johnsongrass” value [9, 19] of the same molecule?
A: 100

Q: What about the “Johnsongrass plant response rating” value ([9]; Preemergence, scale 0 to 100) of the same molecule?
A: 70

Q: And the “Foxtail, Green plant response rating” value ([10]; postemergence, 0-100 scale)?
A: 60

Q: What about the “Plant response rating, Foxtail, Green” value [10, 15] of the same molecule?
A: 65

Q: And the “Plant response rating, Foxtail, Green” value [10, 20]?
A: 98

Q: What about the “Plant response rating, Foxtail, Green” value [10, 16] of the same molecule?
A: 100

Q: And the “Plant response rating, Foxtail, Green” value [10, 17]?
A: 100

Q: And the “Plant response rating, Foxtail, Green” value [10, 18]?
A: 100

Q: What about the “Plant response rating, Foxtail, Green” value [10, 19] of the same molecule?
A: 100

Q: What about the “Foxtail, Green plant response rating” value ([10]; Preemergence, scale 0 to 100) of the same molecule?
A: 30
